From ChEMBL document CHEMBL1208702, “Use of 2-[(18)F]fluoroethylazide for the Staudinger ligation - Preparation and characterisation of GABA(A) receptor binding 4-quinolones” (Bioorg Med Chem Lett, 2010)

Legend:
Blood [1] = test: Biodistribution in iv dosed Sprague-Dawley rats blood after 60 mins by gamma counter; format: ADME, organism-based; conditions: rat, in vivo, 1 h
Heart [2] = test: Biodistribution in iv dosed Sprague-Dawley rats heart after 60 mins by gamma counter; format: ADME, organism-based; conditions: rat, in vivo, 1 h
[3] = Biodistribution in iv dosed Sprague-Dawley rats large intestine after 2 mins by gamma counter; format: ADME, organism-based; conditions: rat, in vivo
Liver [4] = test: Biodistribution in iv dosed Sprague-Dawley rats liver after 30 mins by gamma counter; format: ADME, organism-based; conditions: rat, in vivo, 0.5 h
[5] = Biodistribution in iv dosed Sprague-Dawley rats fat after 0.5 min by gamma counter; format: ADME, organism-based, Adipose tissue; conditions: rat, in vivo
[6] = Drug uptake in Wistar rat brain prefrontal cortex olfactory tubercles at 0.1 MBq/ml after 60 mins by autoradiographic analysis; format: ADME, tissue-based; conditions: in vivo, 1 h
[7] = Biodistribution in iv dosed Sprague-Dawley rats bladder and urine after 10 mins by gamma counter; format: ADME, organism-based; conditions: rat, in vivo
[8] = Biodistribution in iv dosed Sprague-Dawley rats large intestine after 30 mins by gamma counter; format: ADME, organism-based; conditions: rat, in vivo, 0.5 h
Heart [9] = test: Biodistribution in iv dosed Sprague-Dawley rats heart after 0.5 min by gamma counter; format: ADME, organism-based; conditions: rat, in vivo
Lung [10] = test: Biodistribution in iv dosed Sprague-Dawley rats lung after 0.5 min by gamma counter; format: ADME, organism-based; conditions: rat, in vivo
Spleen [11] = test: Biodistribution in iv dosed Sprague-Dawley rats spleen after 30 mins by gamma counter; format: ADME, organism-based; conditions: rat, in vivo, 0.5 h
[12] = Biodistribution in iv dosed Sprague-Dawley rats stomach after 10 mins by gamma counter; format: ADME, organism-based; conditions: rat, in vivo
Muscle tissue [13] = test: Biodistribution in iv dosed Sprague-Dawley rats muscle after 10 mins by gamma counter; format: ADME, organism-based; conditions: rat, in vivo
Kidney [14] = test: Biodistribution in iv dosed Sprague-Dawley rats kidneys after 10 mins by gamma counter; format: ADME, organism-based; conditions: rat, in vivo
Kidney [15] = test: Biodistribution in iv dosed Sprague-Dawley rats kidneys after 0.5 min by gamma counter; format: ADME, organism-based; conditions: rat, in vivo
[16] = Drug uptake in high GABAA expression areas of Wistar rat brain prefrontal cortex at 0.1 MBq/ml after 60 mins by autoradiographic analysis; format: ADME, tissue-based; conditions: in vivo, 1 h
[17] = Biodistribution in iv dosed Sprague-Dawley rats small intestine after 0.5 min by gamma counter; format: ADME, organism-based; conditions: rat, in vivo
[18] = Drug uptake in high GABAA expression areas of Wistar rat brain thalamus/striatum cortex at 0.1 MBq/ml after 60 mins by autoradiographic analysis; format: ADME, tissue-based; conditions: in vivo, 1 h
[19] = Biodistribution in iv dosed Sprague-Dawley rats large intestine after 60 mins by gamma counter; format: ADME, organism-based; conditions: rat, in vivo, 1 h
Liver [20] = test: Biodistribution in iv dosed Sprague-Dawley rats liver after 60 mins by gamma counter; format: ADME, organism-based; conditions: rat, in vivo, 1 h
Muscle tissue [21] = test: Biodistribution in iv dosed Sprague-Dawley rats muscle after 0.5 min by gamma counter; format: ADME, organism-based; conditions: rat, in vivo
[22] = Biodistribution in iv dosed Sprague-Dawley rats large intestine after 10 mins by gamma counter; format: ADME, organism-based; conditions: rat, in vivo
[23] = Biodistribution in iv dosed Sprague-Dawley rats small intestine after 10 mins by gamma counter; format: ADME, organism-based; conditions: rat, in vivo
Muscle tissue [24] = test: Biodistribution in iv dosed Sprague-Dawley rats muscle after 30 mins by gamma counter; format: ADME, organism-based; conditions: rat, in vivo, 0.5 h
Spleen [25] = test: Biodistribution in iv dosed Sprague-Dawley rats spleen after 10 mins by gamma counter; format: ADME, organism-based; conditions: rat, in vivo
[26] = Biodistribution in iv dosed Sprague-Dawley rats bladder and urine after 30 mins by gamma counter; format: ADME, organism-based; conditions: rat, in vivo, 0.5 h
Lung [27] = test: Biodistribution in iv dosed Sprague-Dawley rats lung after 60 mins by gamma counter; format: ADME, organism-based; conditions: rat, in vivo, 1 h
Spleen [28] = test: Biodistribution in iv dosed Sprague-Dawley rats spleen after 0.5 min by gamma counter; format: ADME, organism-based; conditions: rat, in vivo
Blood [29] = test: Biodistribution in iv dosed Sprague-Dawley rats blood after 0.5 min by gamma counter; format: ADME, organism-based; conditions: rat, in vivo
[30] = Biodistribution in iv dosed Sprague-Dawley rats fat after 2 mins by gamma counter; format: ADME, organism-based, Adipose tissue; conditions: rat, in vivo
Spleen [31] = test: Biodistribution in iv dosed Sprague-Dawley rats spleen after 60 mins by gamma counter; format: ADME, organism-based; conditions: rat, in vivo, 1 h
[32] = Biodistribution in iv dosed Sprague-Dawley rats stomach after 2 mins by gamma counter; format: ADME, organism-based; conditions: rat, in vivo
[33] = Biodistribution in iv dosed Sprague-Dawley rats large intestine after 0.5 min by gamma counter; format: ADME, organism-based; conditions: rat, in vivo
[34] = Drug uptake in low GABAA expression areas of Wistar rat brain prefrontal cortex at 0.1 MBq/ml after 60 mins by autoradiographic analysis; format: ADME, tissue-based; conditions: in vivo, 1 h
[35] = Biodistribution in iv dosed Sprague-Dawley rats stomach after 0.5 min by gamma counter; format: ADME, organism-based; conditions: rat, in vivo
Liver [36] = test: Biodistribution in iv dosed Sprague-Dawley rats liver after 2 mins by gamma counter; format: ADME, organism-based; conditions: rat, in vivo
Liver [37] = test: Biodistribution in iv dosed Sprague-Dawley rats liver after 0.5 min by gamma counter; format: ADME, organism-based; conditions: rat, in vivo
Bone = test: Biodistribution in iv dosed Sprague-Dawley rats bone after 10 mins by gamma counter; format: ADME, organism-based, Bone element; conditions: rat, in vivo

Molecule `O=C(NCC[18F])c1c[nH]c2ccc(Cc3ccccc3)cc2c1=O` has a Drug uptake (Blood [1]) of 0.7 %ID, a Drug uptake (Heart [2]) of 0.1 %ID and a Drug uptake [3] of 1.3 %ID. For the same molecule, the Drug uptake (Liver [4]) was 18.7 %ID, the Drug uptake [5] was 0.6 %ID and the Drug uptake [6] was 60%. It also gave a Drug uptake [7] of 0.8 %ID, a Drug uptake [8] of 1.7 %ID and a Drug uptake (Heart [9]) of 2 %ID. The Drug uptake (Lung [10]) was 2.9 %ID, the Drug uptake (Spleen [11]) was 0.1 %ID and the Drug uptake [12] was 1 %ID. The Drug uptake (Muscle tissue [13]) was 27.2 %ID, the Drug uptake (Kidney [14]) was 2.1 %ID and the Drug uptake (Kidney [15]) was 4 %ID. For the same molecule, the Drug uptake [16] was 78%, the Drug uptake [17] was 4.7 %ID and the Drug uptake [18] was 76%. The Drug uptake [19] was 1.9 %ID, the Drug uptake (Liver [20]) was 4.8 %ID and the Drug uptake (Muscle tissue [21]) was 56.1 %ID. It also gave a Drug uptake [22] of 1.7 %ID, a Drug uptake [23] of 24.5 %ID and a Drug uptake (Muscle tissue [24]) of 16.5 %ID. It also gave a Drug uptake (Spleen [25]) of 0.2 %ID, a Drug uptake [26] of 4.2 %ID and a Drug uptake (Lung [27]) of 0.1 %ID. The Drug uptake (Spleen [28]) was 0.2 %ID, the Drug uptake (Blood [29]) was 8.7 %ID and the Drug uptake [30] was 1.8 %ID. For the same molecule, the Drug uptake (Spleen [31]) was 0 %ID, the Drug uptake [32] was 1.2 %ID and the Drug uptake [33] was 0.9 %ID. It also gave a Drug uptake [34] of 76%, a Drug uptake [35] of 0.8 %ID and a Drug uptake (Liver [36]) of 28.5 %ID. It also gave a Drug uptake (Liver [37]) of 14.6 %ID and a Drug uptake (Bone) of 1.7 %ID.
